The values below are quoted from earlier work in US4057684A, “Alkyl amino-glucopyranoside derivative and process for producing the same” (priority 1975, dated 1977).

Each structure is given as a SMILES string.

One series deals with tumor. To be noted: in vivo; cited from earlier work.
For series [1] the following is noted: cited from earlier work.
The conditions of series [2]: test animals; cited from earlier work.
The conditions of series [3]: in vivo; cited from earlier work.

For the compound `O=NN(CCCl)C(=O)N[C@H]1C(O)O[C@H](CO)[C@@H](O)[C@@H]1O` (stereo partly drawn) [2-[3-(2-chloroethyl)-3-nitrosoureido]-2-deoxy-D-glucopyranose], the antitumor activity result in the series with tumor is reported as “improved antitumor activity”. Further, the water solubility result in series [1] was “water-soluble”. Besides, in series [2], the diabetogenic activity entry is reported as “diabetogenic”. Moreover, the bone marrow toxicity result in series [3] is reported as “low bone marrow toxicity”.
